Where “and” joins values, the source holds several entries; their conditions need not be identical. Equal values may be shown once. Read-outs that look alike come from different tables or passages of the source.
Columns and labels:
[1] = tested on: rat myocardial infarct model; format: in vivo
[2] = target: norepinephrine transporter (Rattus norvegicus, UniProt Q63380); format: cell-based
[3] = animal group that received labetalol

norepinephrine transporter, sequence (Q63380 1-617): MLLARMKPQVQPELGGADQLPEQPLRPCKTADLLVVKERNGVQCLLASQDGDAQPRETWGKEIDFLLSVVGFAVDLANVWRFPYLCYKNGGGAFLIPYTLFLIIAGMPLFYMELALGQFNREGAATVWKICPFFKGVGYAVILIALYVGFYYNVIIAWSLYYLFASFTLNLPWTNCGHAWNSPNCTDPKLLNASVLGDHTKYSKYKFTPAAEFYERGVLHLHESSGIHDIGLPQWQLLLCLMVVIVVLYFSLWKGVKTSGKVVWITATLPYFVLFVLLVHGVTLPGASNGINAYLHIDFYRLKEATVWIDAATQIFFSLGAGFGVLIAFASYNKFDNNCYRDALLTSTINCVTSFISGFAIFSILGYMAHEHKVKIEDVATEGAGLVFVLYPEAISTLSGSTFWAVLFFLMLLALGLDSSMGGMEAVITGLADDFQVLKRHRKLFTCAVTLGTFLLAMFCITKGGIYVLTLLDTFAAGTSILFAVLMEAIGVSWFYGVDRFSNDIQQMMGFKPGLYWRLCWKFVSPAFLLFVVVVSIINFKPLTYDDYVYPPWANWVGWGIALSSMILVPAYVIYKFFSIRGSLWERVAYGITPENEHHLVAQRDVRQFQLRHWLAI

**Q.** For `CC(CCc1ccccc1)NCC(O)c1ccc(O)c(C(N)=O)c1` (stereo not shown) [Labetalol, labetalol], which “Infarct Size” value ([1]; N = 6, DPDPE 200 ng/kg iv 30 min before occlusion, labetalol 2 mg/kg iv) is on record?
**A.** 16.2 ± 1.7 % of LV

**Q.** And the “change in heart rate” value [1, 3]?
**A.** mild increase

**Q.** What about the “change in mean blood pressure compared to the other groups” value [1, 3] of the same compound?
**A.** small reduction

**Q.** What about the HR ([1]; rat, in vivo) of the same compound?
**A.** 213 ± 1 bpm and 223 ± 1 bpm and 244 ± 2 bpm and 235 ± 2 bpm

**Q.** What about the “Mean BP” value ([1]; rat, in vivo) of the same compound?
**A.** 125 ± 2 mmHg and 100 ± 2 mmHg and 78 ± 4 mmHg and 81 ± 4 mmHg

**Q.** `CNCCC(Oc1ccccc1OC)c1ccccc1` (stereo not shown) [nisoxetine] was tested. Which “reduction of [3H]norepinephrine uptake” value [2] did it give?
**A.** 36±4%

**Q.** Which results are given for `NC[C@H](O)c1ccc(O)c(O)c1` [norepinephrine]?
**A.** inhibition of [3H] norepinephrine uptake [2]: 20%; reduction of [3H]norepinephrine uptake [2]: 20±5%

**Q.** With [D-Pen^25]-enkephalin [DPDPE] as the compound, how does the HR ([1]; rat, in vivo) read?
**A.** 215 ± 1 bpm and 218 ± 1 bpm and 232 ± 1 bpm and 216 ± 1 bpm

**Q.** And the “Infarct Size” value ([1]; rat, in vivo)?
**A.** 6.6 ± 1.4 % of LV

**Q.** And the “Mean BP” value ([1]; rat, in vivo)?
**A.** 125 ± 1 mmHg and 116 ± 1 mmHg and 89 ± 2 mmHg and 96 ± 1 mmHg

**Q.** And the “infarct-size-limiting effect in rats pretreated with labetalol” value ([1]; rat, in vivo)?
**A.** nearly abolished

**Q.** And the “reduction of LV infarct size compared to control” value ([1]; rat, in vivo, iv)?
**A.** 53%

Source: patent publication US20110112032A1, “Regulation of Brain Natriuretic Peptide and Catecholamines for the Treatment of Cardiovascular Diseases” (priority 2005, published 2011)
